For orientation: IC50 means the concentration that inhibits the measured activity by half.

The subject of data set [1] is six breast cancer cell lines. In words: carboplatin-DNA monoadducts by AMS in cell culture. The data set is classed as cell-based, human. Conditions: 4 hours exposure, range over cell lines and time points. How it is done: Cells were seeded in 60-mm dishes at a density of 1×10^6 cells/dish and allowed to attach overnight in a 37° C. humidified atmosphere containing 5% C02. Cells were treated with 1 μM (a relevant microdose concentration) and 100 μM (a therapeutically relevant concentration) carboplatin. Both the microdose and the therapeutic cell culture treatments included 0.3 μM of [^14C]carboplatin at a final concentration 50,000 dpm/ml for 4 hours, followed by washing and incubation in culture medium free of carboplatin. […] The number of carboplatin-DNA monoadducts was calculated based on the ^14C content in genomic DNA as measured by AMS. […] The concentration of the DNA was determined by its absorption at 260 nm using a Nanodrop spectrophotometer, and then the samples were stored frozen at −80° C. For AMS analysis, a DNA sample was thawed, mixed well by vortexing, and 1-10 μg of DNA was then submitted for AMS analysis, which includes the addition of 1.0 mg of tributyrin as a carrier, followed by combustion to CO2 and reduction to graphite according to published protocols (Ognibene, Ted J., et al. “A high-throughput method for the conversion of CO2 obtained from biochemical samples to graphite in septa-sealed vials for quantification of 14C via accelerator mass spectrometry.” Analytical chemistry 75.9 (2003): 2192-2196). […]

For a further data set, the system named is T47D. In words: MTT assay, carboplatin cytotoxicity. The data set is classed as cell-based, human. Conditions: 72 hours. The method, then:
(§1) Six breast cancer cell lines were tested. […] The cell lines were purchased from ATCC, and cultured in the recommended media. IC50 values were determined for each cell line using the MTT assay (Henderson et al., International Journal of Cancer 2011) after incubating cells for 72 hours with different concentrations of carboplatin. [^14C] carboplatin (53 mCi/mmol) was purchased from the GE Healthcare (Waukesha, Wis.) and further purified at Moravek Biochemical (Brea, Calif.). Unlabeled carboplatin (USP Pharmaceutical Grade) was used to minimize the usage of radiocarbon and achieve the specific activities required for microdoses and therapeutic doses.

Another data set relates to MDA MB 231. In words: MTT assay, carboplatin cytotoxicity. Format: cell-based, human. As to conditions: 72 hours. How it is done:
as §1
In general terms: Tetrazolium dyes change colour on reduction, which living cells bring about.

Another data set deals with Hs 578T. Nature of the data set: MTT assay, carboplatin cytotoxicity. The data set is classed as cell-based, human. Conditions: 72 hours. The method, then: as §1
In the next data set the test system is Tumor Tissue. In words: microdose-induced carboplatin-DNA monoadducts in patients. The data set is classed as in vivo, human. How it is done:
Based upon the previous mouse studies that identified a minimal microdose for accurate AMS analysis of carboplatin monoadducts (1% of therapeutic carboplatin containing 50,000 DPM/gm of mouse body weight), the first in-human evaluation of microdose [^14C]carboplatin was conducted at this same equivalent formulation. The mouse radioactive dose (50,000 DPM/gm), adjusted for body surface area differences between mouse and humans, is equivalent to a dose of 1.0×10^7 DPM/kg of human body weight. The carboplatin dose for human chemotherapy is personalized to a patient's size and kidney function and is calculated using the Calvert formula with an AUC of 6 (Calvert, A. H., et al. “Carboplatin dosage: prospective evaluation of a simple formula based on renal function.” Journal of Clinical Oncology 7.11 (1989): 1748-1756). […] After blood collection, the BD Vacutainer CPT™ tubes were gently inverted several times to ensure mixing with heparin anticoagulant. The tubes were immediately placed on ice or stored at 4° C. and_then processed within 2 hours of collection to separate plasma and PBMC. For processing, the blood filled BD Vacutainer CPT™ tubes were centrifuged at room temperature in a horizontal rotor for 25 minutes at 1600×g. The top plasma layer was transferred to separate tubes and stored at or below −70° C. After most of the plasma was removed from the CPT tube, PBMC were transferred to another tube and washed three times with ice-cold phosphate-buffered solution (PBS). After pelleting the cells and removing the supernatant, the PBMC's were stored frozen at −80° C. until being processed to isolate DNA for determination of the carboplatin-DNA monoadduct frequency. […]
As we have shown in cell culture and mouse tumor xenograph experiments, the carboplatin-DNA monoadduct frequency is proportional to the dose and time integrated exposure to carboplatin. […] DNA from PBMC and tumor tissue was extracted and analyzed by AMS for carboplatin-DNA monoadduct frequency. […]

For data set [2] the following is noted: patients; cited from earlier work.

Values joined by “and” are separate entries in the source; they are usually repeats but may differ in a detail not shown here. Identical values can stand only once.

For the compound `N.N.O=C([O-])C1(C(=O)[O-])CCC1.[Pt+2]` [carboplatin], the entries for the “DNA damage concentrations (carboplatin-DNA monoadducts)” value in data set [1] (microdose 1 μM carboplatin) and in data set [1] (therapeutic dose 100 μM carboplatin) were 1-15 monoadducts per 10^8 nt and 100-1500 monoadducts per 10^8 nt, respectively. The results for the IC50 with T47D, with MDA MB 231 and in the data set on Hs 578T were 250 µM, 250 µM and 44 µM, respectively. Further, the “24 h adducts Tumor” value in the data set with Tumor Tissue (Bladder cancer, individual patients) is 20.2 per 10^8 nt and 14.8 per 10^8 nt and 5.37 per 10^8 nt and 3.13 per 10^8 nt and 0.31 per 10^8 nt and 42.5 per 10^8 nt and 8.79 per 10^8 nt and 0.923 per 10^8 nt; in the data set on Tumor Tissue (Hodgkin patient), 4.58 per 10^8 nt; with Tumor Tissue (NSCLC, individual patients), 0.87 per 10^8 nt and 0.66 per 10^8 nt and 1.3 per 10^8 nt. Besides, the “in vivo carboplatin half-life in patients” value in data set [2] is 1.3 to 6 h.

Source of the values: patent US20200010910A1, “Cytotoxic Chemotherapy-Based Predictive Assays for Acute Myeloid Leukemia” (The Regents of The University of California, priority 2017, published 2020).
